From BindingDB's records for doi:10.1111/cbdd.12881 (Sichuan University, 2017) come the findings set out here.

Assay in all cases: In Vitro Enzymatic Assay
Settings in all cases: 25 °C

Experiment [1] concerns the target Protein arginine N-methyltransferase 5 (Homo sapiens, UniProt O14744). The procedure:
(§1) All in vitro enzymatic assays were carried out by Shanghai ChemPartner Co. (998 Halei Road, Pudong New Area, Shanghai, 201203, China). To measure the IC50 values, 10 concentrations of the target compound were tested. Compounds were prepared as10 mM stock in DMSO and diluted to final concentration in DMSO when needed. The PRMT enzymes and substrates were incubated with indicated concentrations of compounds in a 384-well plate for 60 min at room temperature. After the reaction, acceptor and donor solutions were added to label the residual substrates of PRMT enzymes. The labeling process was lasting for 60 min at room temperature, followedby the reading end-point with Enspire with alpha mode.

For experiment [2], the target named is T1, Protein arginine N-methyltransferase 7 (Homo sapiens, UniProt Q9NVM4).
T1 sequence (Q9NVM4 whole entry): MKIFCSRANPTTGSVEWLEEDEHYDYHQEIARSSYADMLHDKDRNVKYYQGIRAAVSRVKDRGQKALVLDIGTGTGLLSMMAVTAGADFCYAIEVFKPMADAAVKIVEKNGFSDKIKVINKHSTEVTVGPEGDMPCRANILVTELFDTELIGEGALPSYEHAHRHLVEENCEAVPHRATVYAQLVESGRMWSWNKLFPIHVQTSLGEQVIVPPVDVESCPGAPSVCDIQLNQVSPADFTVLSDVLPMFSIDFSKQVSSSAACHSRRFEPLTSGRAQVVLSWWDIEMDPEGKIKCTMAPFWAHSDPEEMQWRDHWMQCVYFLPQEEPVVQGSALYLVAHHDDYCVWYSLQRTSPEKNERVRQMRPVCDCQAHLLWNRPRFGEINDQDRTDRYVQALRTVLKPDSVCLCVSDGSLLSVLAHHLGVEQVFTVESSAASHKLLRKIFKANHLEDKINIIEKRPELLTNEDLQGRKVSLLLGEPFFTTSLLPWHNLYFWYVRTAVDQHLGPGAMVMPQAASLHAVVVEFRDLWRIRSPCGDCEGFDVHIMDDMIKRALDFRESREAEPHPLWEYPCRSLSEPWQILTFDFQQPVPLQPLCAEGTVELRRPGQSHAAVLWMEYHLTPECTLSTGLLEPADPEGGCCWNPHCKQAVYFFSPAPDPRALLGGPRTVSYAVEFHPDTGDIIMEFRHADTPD
The method, then:
as §1

Experiment [3] concerns the target Protein arginine N-methyltransferase 3 [N508S] (Homo sapiens, UniProt O60678, N508S). The procedure: as §1
The target in experiment [4] is Protein arginine N-methyltransferase 6 (Homo sapiens, UniProt Q96LA8). The procedure: as §1
Experiment [5] deals with Protein arginine N-methyltransferase 8 (Homo sapiens, UniProt Q9NR22). The procedure:
as §1

Experiment [6] concerns the target T2, Histone-arginine methyltransferase CARM1 (Homo sapiens, UniProt Q86X55).
T2 sequence (Q86X55 whole entry): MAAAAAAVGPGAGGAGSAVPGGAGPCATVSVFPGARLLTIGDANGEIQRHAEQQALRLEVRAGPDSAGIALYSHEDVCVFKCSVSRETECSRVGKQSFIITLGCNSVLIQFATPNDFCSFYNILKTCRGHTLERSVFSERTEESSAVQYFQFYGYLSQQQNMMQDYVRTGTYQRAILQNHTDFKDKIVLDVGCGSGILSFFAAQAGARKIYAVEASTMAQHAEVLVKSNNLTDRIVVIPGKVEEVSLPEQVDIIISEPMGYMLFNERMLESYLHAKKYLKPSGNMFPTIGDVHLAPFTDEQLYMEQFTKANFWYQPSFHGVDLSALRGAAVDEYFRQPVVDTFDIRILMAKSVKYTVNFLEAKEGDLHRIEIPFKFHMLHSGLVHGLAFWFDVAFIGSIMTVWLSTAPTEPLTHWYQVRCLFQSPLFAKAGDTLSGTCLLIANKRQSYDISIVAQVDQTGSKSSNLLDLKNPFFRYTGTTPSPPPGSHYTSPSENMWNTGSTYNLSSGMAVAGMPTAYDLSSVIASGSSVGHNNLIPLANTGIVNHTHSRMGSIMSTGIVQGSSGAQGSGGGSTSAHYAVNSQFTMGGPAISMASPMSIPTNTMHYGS
The method, then: as §1

The target of experiment [7] is T3, Protein arginine N-methyltransferase 1 [11-371] (Homo sapiens, UniProt Q99873).
T3 construct: 11-371
The procedure:
as §1

Chain of Protein arginine N-methyltransferase 5 (O14744 whole entry): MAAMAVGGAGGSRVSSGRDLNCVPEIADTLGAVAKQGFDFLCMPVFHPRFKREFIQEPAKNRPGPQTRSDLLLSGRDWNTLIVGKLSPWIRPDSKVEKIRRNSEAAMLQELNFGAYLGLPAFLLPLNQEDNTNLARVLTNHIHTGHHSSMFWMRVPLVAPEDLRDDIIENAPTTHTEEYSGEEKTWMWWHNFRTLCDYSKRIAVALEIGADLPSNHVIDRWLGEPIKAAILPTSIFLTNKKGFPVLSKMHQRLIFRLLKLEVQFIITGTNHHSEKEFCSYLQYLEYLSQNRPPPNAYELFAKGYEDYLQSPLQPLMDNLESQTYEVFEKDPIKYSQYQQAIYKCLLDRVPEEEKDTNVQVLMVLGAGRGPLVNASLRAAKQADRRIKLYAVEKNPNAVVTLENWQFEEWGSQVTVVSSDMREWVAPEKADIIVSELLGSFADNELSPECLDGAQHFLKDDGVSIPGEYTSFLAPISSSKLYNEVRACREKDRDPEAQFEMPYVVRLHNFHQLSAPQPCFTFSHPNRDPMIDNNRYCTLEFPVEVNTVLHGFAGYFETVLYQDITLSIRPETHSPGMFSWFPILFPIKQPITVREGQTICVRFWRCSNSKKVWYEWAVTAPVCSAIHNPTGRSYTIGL
Chain of Protein arginine N-methyltransferase 3 [N508S] (O60678 2-531 N508S limits assumed): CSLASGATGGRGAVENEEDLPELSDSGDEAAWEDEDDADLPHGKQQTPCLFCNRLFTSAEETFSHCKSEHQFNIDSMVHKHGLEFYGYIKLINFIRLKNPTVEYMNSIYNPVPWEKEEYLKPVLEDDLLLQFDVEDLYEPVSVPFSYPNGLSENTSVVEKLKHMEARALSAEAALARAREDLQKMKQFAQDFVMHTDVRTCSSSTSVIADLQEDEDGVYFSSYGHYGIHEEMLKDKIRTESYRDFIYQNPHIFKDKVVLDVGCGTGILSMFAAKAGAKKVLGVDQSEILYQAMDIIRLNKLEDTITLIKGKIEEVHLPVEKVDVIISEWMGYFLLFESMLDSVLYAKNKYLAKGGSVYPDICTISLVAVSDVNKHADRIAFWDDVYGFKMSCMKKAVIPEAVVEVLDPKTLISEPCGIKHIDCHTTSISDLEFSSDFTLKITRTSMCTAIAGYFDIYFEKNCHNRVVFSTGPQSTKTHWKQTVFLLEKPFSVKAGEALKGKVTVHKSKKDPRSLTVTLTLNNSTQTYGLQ
Chain of Protein arginine N-methyltransferase 8 (Q9NR22 whole entry): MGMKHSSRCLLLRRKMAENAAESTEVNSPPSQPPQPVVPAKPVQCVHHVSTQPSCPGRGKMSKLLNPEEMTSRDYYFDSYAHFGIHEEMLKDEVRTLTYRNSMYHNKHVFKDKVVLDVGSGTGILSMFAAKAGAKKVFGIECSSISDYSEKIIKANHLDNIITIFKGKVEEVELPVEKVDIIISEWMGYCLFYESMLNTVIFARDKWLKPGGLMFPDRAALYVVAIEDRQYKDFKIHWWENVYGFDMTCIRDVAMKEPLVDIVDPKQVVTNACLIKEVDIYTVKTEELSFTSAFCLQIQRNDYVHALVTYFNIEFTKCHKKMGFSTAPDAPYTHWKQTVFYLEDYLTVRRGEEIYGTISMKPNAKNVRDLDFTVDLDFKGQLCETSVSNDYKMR
T3 sequence (Q99873 11-371): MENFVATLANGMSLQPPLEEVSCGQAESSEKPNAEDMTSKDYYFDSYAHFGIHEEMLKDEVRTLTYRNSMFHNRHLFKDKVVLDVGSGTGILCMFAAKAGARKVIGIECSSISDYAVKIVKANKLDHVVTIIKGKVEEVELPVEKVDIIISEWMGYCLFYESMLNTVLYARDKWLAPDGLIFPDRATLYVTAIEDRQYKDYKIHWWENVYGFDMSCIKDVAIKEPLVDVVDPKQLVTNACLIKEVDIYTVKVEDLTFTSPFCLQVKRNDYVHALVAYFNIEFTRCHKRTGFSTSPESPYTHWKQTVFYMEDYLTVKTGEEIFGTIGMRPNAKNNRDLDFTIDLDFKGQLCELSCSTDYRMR
Chain of Protein arginine N-methyltransferase 6 (Q96LA8 whole entry): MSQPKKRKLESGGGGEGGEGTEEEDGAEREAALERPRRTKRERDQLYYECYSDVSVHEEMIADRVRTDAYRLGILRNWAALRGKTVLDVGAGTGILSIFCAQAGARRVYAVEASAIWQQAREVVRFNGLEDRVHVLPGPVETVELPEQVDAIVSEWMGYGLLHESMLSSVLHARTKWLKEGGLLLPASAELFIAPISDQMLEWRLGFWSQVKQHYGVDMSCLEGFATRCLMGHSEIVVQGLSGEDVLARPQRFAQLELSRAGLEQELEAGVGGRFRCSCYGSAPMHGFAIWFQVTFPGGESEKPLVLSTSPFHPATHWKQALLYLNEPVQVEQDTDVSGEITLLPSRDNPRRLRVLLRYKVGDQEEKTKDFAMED

Take `NC(=S)N/N=C/c1ccc(-c2ccc(Cl)cc2)o1` [P5i-7]: it took 0.72 µM to reach half-maximal inhibition in experiment [1] (IC50). On the same count and under the same terms, under `COc1ccc(-c2ccc(/C=N/NC(N)=O)o2)cc1` [2-((5-(4-methoxyphenyl)furan-2-yl)methylene)hydrazinecarboxamide (4h)] stands 2.1 µM; under `NC(=O)N/N=C/c1cccc(-c2ccc(Cl)cc2)n1` [2-((6-(4-chlorophenyl)pyridin-2-yl)methylene)hydrazinecarboxamide (9g)], 3.5 µM. The same measure, in the same setting: under `NC(=O)N/N=C/c1ccc(-c2ccccc2)o1` [2-((5-phenylfuran-2-yl)methylene)hydrazinecarboxamide (4a)] stands 12 µM; under `O=C1NC(=S)NC(=O)C1=Cc1ccc(-c2ccc(Cl)cc2)o1` [5-{[5-(4-chlorophenyl)furan-2-yl]methylidene}-2-sulfanylidene-1,3-diazinane-4,6-dione], 67 µM; under `NC(=O)N/N=C/c1ccc(-c2ccc(F)cc2)o1` [2-((5-(4-fluorophenyl)furan-2-yl)methylene)hydrazinecarboxamide (4e)], 12 µM. The same measure, in the same setting: under `NC(=O)N/N=C/c1ccc(-c2ccc([N+](=O)[O-])cc2)o1` [2-((5-(4-nitrophenyl)furan-2-yl)methylene)hydrazinecarboxamide (4g)] stands 18 µM. As to `NC(=O)N/N=C/c1ccc(-c2ccc(Cl)cc2)o1` [P5i-6], the IC50 in experiment [2], in experiment [3], in experiment [4], in experiment [5], in experiment [6] and in experiment [7] was more than 100 µM throughout. `NC(=O)N/N=C/c1ccc(-c2cccc(F)c2)o1` [2-((5-(3-fluorophenyl)furan-2-yl)methylene)hydrazinecarboxamide (4d)] yielded an IC50 in experiment [1] of 14 µM. On to `NC(=O)N/N=C/c1cncc(-c2ccc(Cl)cc2)c1` [2-((5-(4-chlorophenyl)pyridin-3-yl)methylene)hydrazinecarboxamide (9f)], for which half-maximal inhibition in experiment [1] (IC50) required 6.9 µM. Same read-out and setting: under `NC(=O)N/N=C/c1cccc(-c2ccc(Cl)cc2)c1` [2-((4′-chloro-[1,1′-biphenyl]-3-yl)methylene)hydrazinecarboxamide (9b)] stands 3.8 µM; under `NC(=O)N/N=C/c1ccc(-c2ccc(Cl)cc2N)o1` [2-((5-(2-amino-4-chlorophenyl)furan-2-yl)methylene)hydrazinecarboxamide (4m)], 13 µM. Turning to `NC(=O)N/N=C/c1ccc(-c2ccc(N)cc2)o1` [2-((5-(4-aminophenyl)furan-2-yl)methylene)hydrazinecarboxamide (4j)], in experiment [1], the IC50 worked out at 40 µM.

What is called IC50 is the point on the concentration scale where inhibition reaches its midpoint. Higher therefore signals lower potency.
